Reference: patent publication US20140206682A1, “COMPOUNDS AND COMPOSITIONS AS PDGFR KINASE INHIBITORS” (NOVARTIS PHARMACEUTICALS UK LIMITED, priority 2011, published 2014)

system: PDGFR; test: Rat A10 cell proliferation assay; type: cell-based; conditions: Table 1; Rat A10 cells, recombinant rat PDGF-BB, CellTiter-Glo after 68 hours
Summary of the method: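 Rat A10 cells in DMEM with 1% FBS and 10 ng/mL rat PDGF-BB, preincubated 4 h at 37 °C, then exposed to 3-fold serially diluted compound for 68 h. Viability/proliferation read as CellTiter-Glo luminescence.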

Row | Compound | IC50 [nM]
1 | O=C(N[C@@H]1c2ccccc2C[C@@H]1O)c1ccc(F)c(NC(=O)c2cnc3cc(F)ccn23)c1 [F18, 7-fluoro-N-(2-fluoro-5-{[(1R,2S)-2-hydroxy-2,3-dihydro-1H-inden-1-yl]carbamoyl}phenyl)imidazo[1,2-a]pyridine-3-carboxamide] | 86
2 | COc1ccc2c(c1)[C@@H](NC(=O)c1ccc(F)c(NC(=O)c3cnc4ccc(C)cn34)c1)[C@@H](O)C2 [F111, N-(2-fluoro-5-{[(1R,2S)-2-hydroxy-6-methoxy-2,3-dihydro-1H-inden-1-yl]carbamoyl}phenyl)-6-methylimidazo[1,2-a]pyridine-3-carboxamide] | 195
3 | O=C(N[C@H]1c2ccccc2C[C@H]1O)c1ccc(F)c(NC(=O)c2cnc3ccccn23)c1 [F6, N-(2-fluoro-5-{[(1S,2R)-2-hydroxy-2,3-dihydro-1H-inden-1-yl]carbamoyl}phenyl)imidazo[1,2-a]pyridine-3-carboxamide] | 86
4 | O=C(N[C@@H]1CCCCC[C@H]1O)c1ccc(F)c(NC(=O)c2cnc3ccccn23)c1 [F12, N-(2-fluoro-5-{[(1R,2R)-2-hydroxycycloheptyl]carbamoyl}phenyl)imidazo[1,2-a]pyridine-3-carboxamide] | 79
5 | O=C(NC1Cc2ccccc2C1O)c1ccc(F)c(NC(=O)c2cnc3cc(Br)ccn23)c1 (stereo not shown) [F10, 7-bromo-N-{2-fluoro-5-[(1-hydroxy-2,3-dihydro-1H-inden-2-yl)carbamoyl]phenyl}imidazo[1,2-a]pyridine-3-carboxamide] | 130
6 | [2H]c1c([2H])c([2H])n2c(C(=O)Nc3cc(C(=O)N[C@@H]4c5ccccc5C[C@@H]4O)ccc3F)cnc2c1[2H] [F25, N-(2-fluoro-5-{[(1R,2S)-2-hydroxy-2,3-dihydro-1H-inden-1-yl]carbamoyl}phenyl)-5,6,7,8-tetrahydrogenioimidazo[1,2-a]pyridine-3-carboxamide] | 65
7 | O=C(N[C@@H]1CCCC[C@@H]1O)c1ccc(F)c(NC(=O)c2cnc3ccccn23)c1 [F11, N-(2-fluoro-5-{[(1R,2S)-2-hydroxycyclohexyl]carbamoyl}phenyl)imidazo[1,2-a]pyridine-3-carboxamide] | 199
8 | CCC[C@@H](CO)NC(=O)c1ccc(F)c(NC(=O)c2cnc3ccccn23)c1 [F110, N-(2-fluoro-5-{[(2S)-1-hydroxypentan-2-yl]carbamoyl}phenyl)imidazo[1,2-a]pyridine-3-carboxamide] | 115
9 | O=C(N[C@H]1CCCC[C@@H]1O)c1ccc(F)c(NC(=O)c2cnc3ccccn23)c1 [F9, N-(2-fluoro-5-{[(1S,2S)-2-hydroxycyclohexyl]carbamoyl}phenyl)imidazo[1,2-a]pyridine-3-carboxamide] | 70
10 | Cc1ccc(C(=O)NC(CO)c2ccccc2)cc1NC(=O)c1cnc2ccccn12 (stereo not shown) [F2, N-{5-[(2-hydroxy-1-phenylethyl)carbamoyl]-2-methylphenyl}imidazo[1,2-a]pyridine-3-carboxamide] | 146
11 | Cc1ccc(C(=O)NC(CO)Cc2ccccc2)cc1NC(=O)c1cnc2ccccn12 (stereo not shown) [F1, N-{5-[(1-hydroxy-3-phenylpropan-2-yl)carbamoyl]-2-methylphenyl}imidazo[1,2-a]pyridine-3-carboxamide] | 82
12 | O=C(N[C@H]1CCSC[C@H]1O)c1ccc(F)c(NC(=O)c2cnc3ccccn23)c1 [F125, N-(2-fluoro-5-{[(3S,4S)-3-hydroxythian-4-yl]carbamoyl}phenyl)imidazo[1,2-a]pyridine-3-carboxamide] | 98
13 | Cc1ccc(C(=O)N[C@@H]2c3ccccc3C[C@@H]2O)cc1NC(=O)c1cnc2ccccn12 [F20, N-(5-{[(1R,2S)-2-hydroxy-2,3-dihydro-1H-inden-1-yl]carbamoyl}-2-methylphenyl)imidazo[1,2-a]pyridine-3-carboxamide] | 29

same assay, conditions: Table 2; Rat A10 cells, recombinant rat PDGF-BB, CellTiter-Glo after 68 hours

Row | Compound | IC50 [nM]
14 | O=C(NC12C[C@@H]3C[C@@H](CC(O)(C3)C1)C2)c1ccc(F)c(NC(=O)c2cnc3ccccn23)c1 [F52, N-(2-fluoro-5-{[(5R,7S)-3-hydroxyadamantan-1-yl]carbamoyl}phenyl)imidazo[1,2-a]pyridine-3-carboxamide] | 422
15 | CC(C)(O)[C@H]1CCCC[C@@H]1NC(=O)c1ccc(F)c(NC(=O)c2cnc3ccccn23)c1 [F102, N-(2-fluoro-5-{[(1S,2S)-2-(2-hydroxypropan-2-yl)cyclohexyl]carbamoyl}phenyl)imidazo[1,2-a]pyridine-3-carboxamide] | 425
16 | O=C(NCC1(O)CCCC1)c1cccc(NC(=O)c2cnc3ccccn23)c1 [F69] | 1850
17 | CCC[C@@H](CO)NC(=O)c1cccc(NC(=O)c2cnc3ccccn23)c1 [F57, N-(3-{[(2S)-1-hydroxypentan-2-yl]carbamoyl}phenyl)imidazo[1,2-a]pyridine-3-carboxamide] | 522
18 | O=C(NC1CCCC[C@H]1CO)c1ccc(F)c(NC(=O)c2cnc3ccccn23)c1 (stereo in doubt) [F43, N-(2-fluoro-5-{[(1R,2R)-2-(hydroxymethyl)cyclohexyl]carbamoyl}phenyl)imidazo[1,2-a]pyridine-3-carboxamide] | 294
19 | Cc1ccc2ncc(C(=O)Nc3cc(C(=O)N[C@@H]4c5cc(F)ccc5C[C@@H]4O)c(C)cc3F)n2c1 [F89, N-(2-fluoro-5-{[(1R,2S)-6-fluoro-2-hydroxy-2,3-dihydro-1H-inden-1-yl]carbamoyl}-4-methylphenyl)-6-methylimidazo[1,2-a]pyridine-3-carboxamide] | 1810
20 | O=C(N[C@@H]1c2ccccc2C[C@@H]1O)c1ccc(F)c(NC(=O)c2cnc3cc(C(F)(F)F)ccn23)c1 (stereo in doubt) [F40, N-(2-fluoro-5-{[(1R,2S)-2-hydroxy-2,3-dihydro-1H-inden-1-yl]carbamoyl}phenyl)-7-(trifluoromethyl)imidazo[1,2-a]pyridine-3-carboxamide] | 261
21 | COc1ccc2c(c1)[C@@H](NC(=O)c1ccc(F)c(NC(=O)c3cnc4ccc(C)cn34)c1)[C@@H](O)C2 (stereo in doubt) [F45, N-(2-fluoro-5-{[(1R,2S)-2-hydroxy-6-methoxy-2,3-dihydro-1H-inden-1-yl]carbamoyl}phenyl)-6-methylimidazo[1,2-a]pyridine-3-carboxamide] | 345
22 | CC(C)[C@H](CO)NC(=O)c1cccc(NC(=O)c2cnc3ccccn23)c1 [F80, N-(3-{[(2R)-1-hydroxy-3-methylbutan-2-yl]carbamoyl}phenyl)imidazo[1,2-a]pyridine-3-carboxamide] | > 10000
23 | O=C(N[C@H]1c2ccccc2C[C@H]1O)c1cccc(NC(=O)c2cnc3ccccn23)c1 [F68, N-(3-{[(1S,2R)-2-hydroxy-2,3-dihydro-1H-inden-1-yl]carbamoyl}phenyl)imidazo[1,2-a]pyridine-3-carboxamide] | 1520
24 | O=C(NCC1(O)CCC1)c1ccc(F)c(NC(=O)c2cnc3ccccn23)c1 [F91, N-(2-fluoro-5-{[(1-hydroxycyclobutyl)methyl]carbamoyl}phenyl)imidazo[1,2-a]pyridine-3-carboxamide] | 1740
25 | O=C(N[C@H]1CC[C@H](O)CC1)c1ccc(F)c(NC(=O)c2cnc3ccccn23)c1 [F93, N-{2-fluoro-5-[(4-hydroxycyclohexyl)carbamoyl]phenyl}imidazo[1,2-a]pyridine-3-carboxamide] | 1140
26 | O=C(NC1Cc2ccccc2C1O)c1ccc(F)c(NC(=O)c2cnc3ccccn23)c1 (stereo not shown) [F53, N-{2-fluoro-5-[(1-hydroxy-2,3-dihydro-1H-inden-2-yl)carbamoyl]phenyl}imidazo[1,2-a]pyridine-3-carboxamide] | 433
27 | O=C(N[C@@H]1c2ccccc2C[C@@H]1O)c1ccc(F)c(NC(=O)c2cnc3ccc(N4CCOCC4)cn23)c1 (stereo in doubt) [F54, N-(2-fluoro-5-{[(1R,2S)-2-hydroxy-2,3-dihydro-1H-inden-1-yl]carbamoyl}phenyl)-6-(morpholin-4-yl)imidazo[1,2-a]pyridine-3-carboxamide] | 477
28 | O=C(N[C@@H]1Cc2ccccc2[C@H]1O)c1ccc(F)c(NC(=O)c2cnc3ccccn23)c1 [F37, N-(2-fluoro-5-{[(1R,2R)-1-hydroxy-2,3-dihydro-1H-inden-2-yl]carbamoyl}phenyl)imidazo[1,2-a]pyridine-3-carboxamide] | 242
